In brackets after ≈: the same amount, converted by molar mass. One block for each compound: values may come before it.
What was measured:
physchem = conditions: pH 7.4, aqueous buffer, kinetic from dmso stock
in vitro = conditions: PAMPA
VDR-SRC2-1 = target: T1, VDR-SRC2-1 (Homo sapiens, UniProt P11473, DEL165-215); experiment: VDR-coregulator binding FP, Texas Red-labeled peptide; conditions: 3 h
T1 construct: made in house
T1 sequence (P11473 with tags, fused parts or gaps DEL165-215 limits assumed): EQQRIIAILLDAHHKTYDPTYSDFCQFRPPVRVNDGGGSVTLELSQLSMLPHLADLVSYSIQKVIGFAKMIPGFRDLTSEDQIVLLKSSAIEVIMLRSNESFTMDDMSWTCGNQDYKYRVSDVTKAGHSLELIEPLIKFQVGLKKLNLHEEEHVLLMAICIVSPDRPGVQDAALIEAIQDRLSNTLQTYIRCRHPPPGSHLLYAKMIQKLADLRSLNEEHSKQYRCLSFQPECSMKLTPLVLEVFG

VDR-Hr1 = target: T2, VDR-Hr1 (Homo sapiens, UniProt P11473, DEL165-215); experiment: as above; conditions: 3 h
T2 construct: made in house
T2 sequence (P11473 with tags, fused parts or gaps DEL165-215 limits assumed): T1 sequence (P11473 with tags, fused parts or gaps DEL165-215 limits assumed)

VDR-LBD / SRC2-3 peptide = target: T3, VDR-LBD / SRC2-3 peptide (Homo sapiens, UniProt P11473, DEL165-215); experiment: Identification of reaction partner, pre-incubation FP; type: binding; conditions: FP after 5 minutes
T3 construct: made in house
T3 sequence (P11473 with tags, fused parts or gaps DEL165-215 limits assumed): T1 sequence (P11473 with tags, fused parts or gaps DEL165-215 limits assumed)

TRPV6 in DU145 cells = experiment: TRPV6 expression, semi-quantitative RT-PCR; type: cell-based
CYP24A1 = CYP24A1 expression levels; type: cell-based; conditions: compound and calcitriol
DU145 cells = experiment: Cytotoxicity seen in TRPV6 expression study; type: cell-based; conditions: concentrations higher than 20 μM
VDR in SKOV-3 cells = experiment: VDR expression, western blotting of whole cell lysate; type: cell-based; conditions: SKOV-3, 24 hours; 31b 25 and 50 uM, 32b 50 uM
Method: Expression of VDR was analyzed by western blotting of whole cell lysate using monoclonal antibody against VDR (Neomarker, Calif. cat no-RT-200PO).

SKOV-3 = experiment: Cytotoxicity, MTS assay; type: cell-based; conditions: SKOV-3, within 48 hours
OVCAR-8 = experiment: Cytotoxicity, MTS assay; type: cell-based; conditions: OVCAR-8, within 48 hours
ECC-1 = experiment: Cytotoxicity, MTS assay; type: cell-based; conditions: ECC-1 endometrial cancer cell-line, within 48 hours
SKOV-3 cells [1] = experiment: Mitochondrial transmembrane depolarization potential; type: cell-based
SKOV-3 cells [2] = experiment: Western blots for cleaved PARP-1 and cleaved caspase-3; type: cell-based; conditions: SKOV-3, within 24 hours
SKOV-3 cells [3] = experiment: Reactive oxygen species levels; type: cell-based; conditions: SKOV-3, within 24 hours
From the text: (§1) Vitamin-d/VDR signaling protects the cancer cells from reactive oxygen species (ROS) induced cellular damages.

SKOV-3 cells [4] = experiment: Western blots for phospho-p38 MAPkinase and phospho SAPK/JNK; type: cell-based; conditions: SKOV-3, 25 uM, within 24 hours
From the text: as §1

SKOV-3 cells [5] = experiment: Cell cycle analysis by FACS; type: cell-based; conditions: SKOV-3, 24 hours
From the text: Inducing cell cycle arrest or targeting cell-cycle regulators by small molecule modulators has shown promising outcomes in animal models.

[6] = 12 h, pH 7.4
[7] = PAMPA
VDR-SRC2 interaction = target: T4, VDR-SRC2 interaction (Homo sapiens, UniProt P11473, DEL165-215); experiment: Pull down assay, VDR and SRC2 bearing all three NIDs
T4 sequence (P11473 with tags, fused parts or gaps DEL165-215 limits assumed): T1 sequence (P11473 with tags, fused parts or gaps DEL165-215 limits assumed)
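For Papp in this document: passive permeability measured by parallel artificial membrane permeability assay, each experiment run in triplicate.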
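For Permeability Log(Pe) in this document: passive permeability measured by parallel artificial membrane permeability assay, each experiment run in triplicate.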

solubility at 12 h (physchem): 503 µM (≈ 195 µg/mL)
Papp (in vitro): 0.148 ×10⁻⁶ cm/s
SMILES: Cc1[nH]c2ccccc2c1C(Nc1ccccc1)c1ccc(OCCCO)cc1 (stereo not shown) [Compound 30i, 3-(4-((2-methyl-1H-indol-3-yl)(phenylamino)methyl)phenoxy)propan-1-ol]

Inhibition of VDR-SRC2-1 binding (VDR-SRC2-1): no inhibition
Inhibition of VDR-Hr1 binding (VDR-Hr1): no inhibition
FP signal after pre-incubation with SRC2-3 for 3 hours, then addition of VDR-LBD and LG190178 (VDR-LBD / SRC2-3 peptide): did not change
FP signal after pre-incubation with VDR-LBD and LG190178 for 3 hours, then addition of SRC2-3 (VDR-LBD / SRC2-3 peptide): did result in a change of FP signal
Solubility [6]: 68.0 µM (≈ 25.9 µg/mL)
Permeability Log(Pe) [7]: −6.24 cm/s
Inhibition of VDR-SRC2 interaction in pull down assay (VDR-SRC2 interaction; 50 μM and 100 μM, residual interaction still detected): significant inhibition
VDR-SRC2 interaction after pre-incubation of SRC2 with compound (VDR-SRC2 interaction; beads washed, then treated with VDR): VDR-SRC2 interactions could be verified
Inhibition of VDR-SRC2 interaction in pull down assay (VDR-SRC2 interaction; different concentrations, with 1,25(OH)2D3): blocked in a dose dependent manner
SMILES: Cc1[nH]c2ccccc2c1C(Nc1ccc(Cl)cc1)c1ccccc1Cl (stereo not shown) [Compound 31b, 4-chloro-N-((2-chlorophenyl)(2-methyl-1H-indol-3-yl)methyl)aniline]
TRPV6 transcription in the presence of 1,25-(OH)2D3 (TRPV6 in DU145 cells; 20 nM 1,25-(OH)2D3, different concentrations): reduced in a dose dependent manner
TRPV6 regulation, single treatment (TRPV6 in DU145 cells; 20 μM, without 1,25-(OH)2D3): no regulation of TRPV6
CYP24A1 induction with calcitriol, in comparison to calcitriol treatment (CYP24A1): significant increase in CYP24A1 induction
Cytotoxicity in DU145 cells (DU145 cells): increased cytotoxicity
Expression of VDR (VDR in SKOV-3 cells): downregulation of VDR
Cytotoxicity, cell viability (SKOV-3): potent cytotoxicity
Cytotoxicity, cell viability (OVCAR-8): potent cytotoxicity
Cytotoxicity, cell viability (ECC-1): potent cytotoxicity
Mitochondrial transmembrane depolarization potential (ΔΨm) (SKOV-3 cells [1]): induced activation of mitochondrial transmembrane depolarization potential
Activation of caspase-3 (SKOV-3 cells [2]): activation of caspase-3
Cleavage of PARP-1 (SKOV-3 cells [2]): significant cleavage of PARP-1
Reactive oxygen species level compared to vehicle (SKOV-3 cells [3]): elevated level of reactive production
Activation of SAPK/JNK (SKOV-3 cells [4]): strong/sustained activation of SAPK/JNK
Activation of p38 MAPkinase (SKOV-3 cells [4]): activation of p38 MAPkinase
Apoptotic (subG1/G0) population (SKOV-3 cells [5]): increase
Population in G1 and G2/M phase (SKOV-3 cells [5]): reduced
S-phase arrest of cycling cells (SKOV-3 cells [5]): restricted the progression of cycling cells in S-phase significantly

— patent publication US10093653B2, “Vitamin D receptor-coregulator inhibitors” (UWM Research Foundation, Inc., priority 2011, dated 2018)
